Data: patent US20090156594A1, “HETEROCYCLIC KINASE MODULATORS” (SGX Pharmaceuticals, Inc., priority 2007, published 2009)

Assays:
GTL16 cells = assay: 96-well XTT cell survival assay (GTL16 cells); assay type: cell-based; settings: Homo sapiens, GTL 16, 72 hours
Description: GTL16 cells were maintained in DMEM Medium supplemented with 10% fetal bovine serum (FBS) 2 mM L-Glutamine and 100 units penicillin/100 μg streptomycin, at 37° C. in 5% CO2.
Compounds were Tested in the Following Assays in Duplicate.
96-well XTT assay (GTL16 cells): One day prior to assay the growth media was aspirated off and assay media was added to cells. On the day of the assay, the cells were grown in assay media containing various concentrations of compounds (duplicates) on a 96-well flat bottom plate for 72 hours at 37° C. in 5% CO2. The starting cell number was 5000 cells per well and volume was 120 μl. At the end of the 72-hour incubation, 40 μl of XTT labeling mixture (50:1 solution of sodium 3′-[1-(phenylaminocarbonyl)-3,4-tetrazolium]-bis(4-methoxy-6-nitro) benzene sulfonic acid hydrate and Electron-coupling reagent: PMS (N-methyl dibenzopyrazine methyl sulfate) were added to each well of the plate. After an additional 5 hours of incubation at 37° C., the absorbance reading at 450 nm with a background correction of 650 nm was measured with a spectrophotometer.

c-MET = molecular target: T1, c-MET (Homo sapiens, UniProt P08581); assay: MET luminescence-based enzyme assay (Kinase-Glo); assay type: biochemical; settings: MET kinase domain, 10 μM ATP, 60 min at 21° C.
T1 construct: expressing the kinase domain of human Met; 6x Histidine tag (TEV-cleavable) (cleaved yes); made in house; host or cells: Sf9 insect cells
Description: Screening data was evaluated using the equation: Z′=1-[3*(σ++σ−)/|μ+−μ−|] […] The subscript designates positive or negative controls. The Z′ score for a robust screening assay should be ≧0.50. The typical threshold=μ+−3*σ+. Any value that falls below the threshold was designated a “hit”.
MET Luminescence-Based Enzyme Assay
MET kinase (see below), Kinase-Glom (Promega Cat#V6712).
(diluted 50 μl into total of 10 ml miliQH2O daily=50 μM ATP working stock); 1% BSA (1 g BSA in 100 ml 0.1M HEPES, pH 7.5, stored at −20° C.), 100 mM MgCl2; 200 μM Staurosporine, 2× Kinase-Glo™ reagent (made fresh or stored at −20° C.).
Standard Assay Setup for 384-well format (20 μl kinase reaction, 40 μl detection reaction): 10 mM MgCl2; 0.3 mg/mil poly Glu-Tyr; 0.1% BSA; 1 μl test compound (in DMSO); 0.4 μg/ml MET kinase; 10 μM ATP; 100 mM HEPES buffer. Positive controls contained DMSO with no test compound. Negative controls contained […] staurosporine. The kinase reactions were initiated at time t=0 by the addition of ATP. Kinase reactions were incubated at 21° C. for 60 min, then 20 μl of Kinase-Glo™ reagent were added to each well to quench the kinase reaction and initiate the luminescence reaction. After a 20 min incubation at 21° C., the luminescence was detected in a plate-reading luminometer.
The cell pellets produced from half of a 12 L Sf9 insect cell culture expressing the kinase domain of human Met were resuspended in a buffer containing 50 mM Tris-HCl pH 7.7 and 250 mM NaCl, in a volume of approximately 40 ml per 1 L of original culture. […] The suspension was stirred for 1 hour at 4° C. Debris was removed by centrifugation for 30 minutes at 39,800×g at 4° C. […] The sample was then poured into a drip column at 4° C. and washed with 10 column volumes of 50 mM Tris-HCl pH 7.8, 500 mM NaCl, 10% Glycerol, […], and 10 mM Methionine. The protein was eluted using a step gradient with two column volumes each of the same buffer containing 50 mM, 200 mM, and 500 mM Imidazole, sequentially. […] The step gradient was run with 15% and then 80% of the B-side (A-side=50 mM Tris-HCl pH 7.8, 500 mM NaCl, 10% Glycerol, 10 mM Imidazole, and 10 mM Methionine; B-side=50 mM Tris-HCl pH 7.8, […], 10% Glycerol, 500 mM Imidazole, and 10 mM Methionine) for 4 column volumes each.

T1 sequence (P08581 1078-1345 limits assumed): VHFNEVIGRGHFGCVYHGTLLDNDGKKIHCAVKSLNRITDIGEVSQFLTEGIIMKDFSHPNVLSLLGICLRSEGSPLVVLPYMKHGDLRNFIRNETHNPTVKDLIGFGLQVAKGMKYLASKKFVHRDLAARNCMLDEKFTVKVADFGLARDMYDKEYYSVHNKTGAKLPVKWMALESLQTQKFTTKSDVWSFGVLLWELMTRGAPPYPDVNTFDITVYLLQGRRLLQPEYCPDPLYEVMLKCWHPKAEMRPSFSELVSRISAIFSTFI

Compound	IC50 (GTL16 cells) [nM]	IC50 (c-MET) [nM]
c1ccc(-c2nn3c(Cc4ccc5ncccc5c4)nnc3s2)cc1	1000 to 10000	< 100
Cn1cc(-c2nn3c(Cc4cc5cccnc5cc4F)nnc3s2)cn1	≤ 100	< 100
Cn1cc(-c2nn3c(Cc4c(F)cc5ncccc5c4F)nnc3s2)cn1	≤ 100	< 100
Fc1cc2ncccc2cc1Cc1nnc2sc(C(F)(F)F)nn12		1000 to 10000
c1ccc(-c2cn3c(Sc4ccc5ncccc5c4)nnc3s2)cc1	1000 to 10000	100 to 1000
Cc1nn2c(Cc3cc4cccnc4cc3F)nnc2s1	100 to 1000	100 to 1000
Fc1cc2ncccc2cc1Cc1nnc2sc(-c3ncc[nH]3)nn12	1000 to 10000	100 to 1000
Cc1nn2c(Cc3ccc4ncc(-c5cnn(C)c5)cc4c3)nnc2s1	≤ 100	< 100
Cc1nn2c(Sc3ccc4ncccc4c3)nnc2s1		100 to 1000
Cn1cc(-c2cnc3ccc(Cc4nnc5sc(CNCC6CC6)nn45)cc3c2)cn1	≤ 100	< 100
Cc1nn2c(Cc3ccc4ncc(-c5cnn(C)c5)cc4c3F)nnc2s1	≤ 100	< 100
Cc1nn2c(Cc3c(F)cc4ncc(Br)cc4c3F)nnc2s1	100 to 1000	100 to 1000
Cc1nn2c(Sc3ccc4ncc(-c5cnn(C)c5)cc4c3)nnc2s1	≤ 100	< 100
Cn1cc(-c2cnc3ccc(Cc4nnc5sc([C@@H](N)CC6CCCCC6)nn45)cc3c2)cn1		100 to 1000
C[C@H](N)c1nn2c(Cc3ccc4ncc(-c5cnn(C)c5)cc4c3)nnc2s1		100 to 1000
Cn1cc(-c2cnc3ccc(Cc4nnc5sc(C6CC6)nn45)cc3c2)cn1	≤ 100	< 100
Cn1cc(-c2cnc3ccc(Cc4nnc5sc([C@@H]6CCCN6)nn45)cc3c2)cn1		100 to 1000
Cn1cc(-c2cnc3ccc(Cc4nnc5sc(CNCCF)nn45)cc3c2)cn1	≤ 100	< 100
Cn1cc(-c2cnc3ccc(Cc4nnc5sc(CNCCN6CCOCC6)nn45)cc3c2)cn1	100 to 1000	< 100
CCc1nn2c(Cc3ccc4ncc(-c5cnn(C)c5)cc4c3)nnc2s1	≤ 100	< 100
CNCc1nn2c(Cc3ccc4ncc(-c5cnn(C)c5)cc4c3)nnc2s1	≤ 100	< 100
Brc1cnc2ccc(Cc3nnc4sc(CN5CCCC5)nn34)cc2c1		100 to 1000
CCc1nn2c(Sc3ccc4ncc(-c5cnn(C)c5)cc4c3)nnc2s1	100 to 1000	< 100
COCc1nn2c(Cc3ccc4ncc(-c5cnn(C)c5)cc4c3)nnc2s1	≤ 100	< 100
CN(C)Cc1nn2c(Cc3ccc4ncc(-c5cnn(C)c5)cc4c3)nnc2s1	≤ 100	< 100
Cn1cc(-c2cnc3ccc(Cc4nnc5sc(CNC6CC6)nn45)cc3c2)cn1	≤ 100	< 100

Compound	IC50 (GTL16 cells) [nM]	IC50 (c-MET) [nM]
CC(C)NCc1nn2c(Cc3ccc4ncc(-c5cnn(C)c5)cc4c3)nnc2s1	≤ 100	< 100
Cn1cc(-c2cnc3ccc(Cc4nnc5sc(CNCCO)nn45)cc3c2)cn1	100 to 1000	< 100
C[C@@H](O)[C@@H](N)c1nn2c(Cc3ccc4ncc(-c5cnn(C)c5)cc4c3)nnc2s1		1000 to 10000
C[C@@H](N)c1nn2c(Cc3ccc4ncc(-c5cnn(C)c5)cc4c3)nnc2s1	100 to 1000	< 100
Cn1cc(-c2cnc3ccc(Cc4nnc5sc(C(N)Cc6cncn6C)nn45)cc3c2)cn1 (stereo not shown)		100 to 1000
CN[C@H](C)c1nn2c(Cc3ccc4ncc(-c5cnn(C)c5)cc4c3)nnc2s1	100 to 1000	100 to 1000
Cn1cc(-c2cnc3ccc(Cc4nnc5sc([C@H](N)CC6CCCCC6)nn45)cc3c2)cn1	100 to 1000	< 100
Cn1cc(-c2cnc3ccc(Cc4nnc5sc(C6CCC6)nn45)cc3c2)cn1	≤ 100	< 100
Cn1cc(-c2cnc3ccc(Cc4nnc5sc(CNCC(F)(F)F)nn45)cc3c2)cn1	≤ 100	< 100
CCNCc1nn2c(Cc3ccc4ncc(-c5cnn(C)c5)cc4c3)nnc2s1	100 to 1000	< 100
Cn1cc(-c2cnc3ccc(Cc4nnc5sc([C@@H](N)CC6CC6)nn45)cc3c2)cn1		< 100
CS(=O)(=O)c1cccc(-c2cnc3nnc(Cc4ccc5ncccc5c4)n3c2)c1		> 10000
NCc1ccc(-c2cnc3nnc(Cc4ccc5ncccc5c4)n3c2)cc1		> 10000
Cc1nn2c(Cc3c(F)cc4ncc(-c5cnn(C)c5)cc4c3F)nnc2s1	≤ 100	< 100
COCCc1nn2c(Sc3ccc4ncc(-c5cnn(C)c5)cc4c3)nnc2s1	≤ 100	< 100
CN(C)Cc1nn2c(Cc3c(F)cc4ncc(Br)cc4c3F)nnc2s1		1000 to 10000
OCc1nn2c(Cc3ccc4ncc(Br)cc4c3)nnc2s1		> 10000
Cn1cc(-c2cnc3ccc(Cc4nnc5nccnn45)cc3c2)cn1 [3-(1-Methyl-1H-pyrazol-4-yl)-6-[1,2,4]triazolo[4,3-b][1,2,4]triazin-3-ylmethyl-quinoline]	≤ 100	< 100
c1ccc(-c2cn3c(Cc4ccc5ncccc5c4)nnc3s2)cc1 [6-(6-Phenyl-thiazolo[2,3-c][1,2,4]triazol-3-ylmethyl)-quinoline]		1000 to 10000
Cn1cc(-c2nn3c(Cc4ccc5ncccc5c4)cnc3s2)cn1 [6-[2-(1-methyl-1H-pyrazol-4-yl)-imidazo[2,1-b][1,3,4]thiadiazol-5-ylmethyl]-quinoline]	100 to 1000	< 100
Cn1cc(-c2nn3c(Cc4ccc5ncccc5c4)nnc3s2)cn1 [6-[6-(1-Methyl-1H-pyrazol-4-yl)-[1,2,4]triazolo[3,4-b][1,3,4]thiadiazol-3-ylmethyl]-quinoline]	100 to 1000	
Cn1cc(-c2nn3c(Sc4ccc5ncccc5c4)nnc3s2)cn1 [6-[6-(1-Methyl-1H-pyrazol-4-yl)-[1,2,4]triazolo[3,4-b][1,3,4]thiadiazol-3-ylsulfanyl]-quinoline]	100 to 1000	< 100
c1cnc2ccc(Cc3nnc4sc(NC5CC5)nn34)cc2c1 [cyclopropyl-(3-quinolin-6-ylmethyl-[1,2,4]triazolo[3,4-b][1,3,4]thiadiazol-6-yl)-amine]	≤ 100	< 100
Cn1cc(-c2cnc3ccc(Cc4nnc5sc(-c6cccnc6)nn45)cc3c2)cn1 [drawing 184]	≤ 100	
Cn1cc(-c2cnc3ccc(Cc4nnc5sc(-c6cccnc6)nn45)cc3c2)cn1 [drawing 217]		< 100
